Laboratory results as given in patent publication US9872868B2, “Mitochondrially-targeted electrophilic compounds and methods of use for the treatment of cancer” (UAB Research Foundation, priority 2013, dated 2018).

How the values were obtained:
[1] = test system: breast cancer cells; conditions: by altering p38 and ERK signaling; cited from earlier work
[2] = test system: MDA-MB 231 cells; assay: Mitochondrial bioenergetic assay, Extracellular Flux Analyzer XF-24 (OCR); assay type: cell-based, human; conditions: 5 μM, 4 h, 0.5% serum containing medium, vs EtOH vehicle
Method: FIG. 3. Bioenergetic response of breast cancer cells to MTE. Panel A. A schematic representation of the mitochondrial bioenergetic assay in an Extracellular Flux Analyzer XF-24 (Seahorse Biosciences). Panel A: Sequential injections of oligomycin, FCCP, and Antimycin A allow determination of the component mitochondrial bioenergetic parameters. Panel B. MDA-MB 231 cells were treated for 4 h in 0.5% serum containing medium with EtOH vehicle, IBTP (5 μM), or BTPP (5 μM) and the OCR measured over time. Panel C. Comparison of basal OCR, ATP-dependent OCR, and reserve capacity (RC) with veh and IBTP treatments. Each point is the mean of a minimum of 3 determinations±SEM, from at least 2 independent experiments. Asterisks represent p<0.05. Recent work has shown that MTEs can modulate cell signaling, and depending upon the specific MTE, may do so without causing overt cellular toxicity to cancer cells or normal cells (12). MTEs are small molecules which consist of a triphenylphosphonium lipophilic cationic moiety and a leaving group such as iodide, which renders the adjacent carbon electrophilic. […] We have previously shown reserve capacity is indicative of the cells' ability to withstand a “second hit” of oxidative stress (7).

[3] = test system: HIF-1α; assay: HIF-1α stabilization by western blotting; assay type: cell-based, human
Method: FIG. 5. Effects of an MTE on HIF-1α. MDA-MB-231 cells were incubated for 8 h under normoxia or hypoxia and were treated with either 10 μM IBTP or bTPP for 4 h. The lysates were collected and analyzed for HIF-1α stabilization by western blotting.
However, the mechanism for this decrease in HIF-1α protein is not clear. One possibility is that IBTP inhibits the enzyme within the Krebs cycle, KGDH, that is responsible for converting α-ketoglutarate to succinyl-CoA. Inhibition of this enzyme would cause an increase in α-ketoglutarate, which is a cofactor for the prolyl hydroxylase involved in HIF-1α degradation. We propose that MTEs affect HIF-1α stabilization at least in part, by modulating the activity of KGDH and increasing intracellular levels of α-ketoglutarate. KGDH was previously shown to be among the proteins which form covalent adducts with IBTP (13). Importantly, decreased stabilization of HIF-1α prevents the bioenergetic adaptation to hypoxia in breast cancer cells, as we have recently shown (11)(in press, see Appendix 1).

[4] = test system: MDA-MB 231 breast cancer cells; assay: Cell adhesion (reattachment after scraping), viable non-adherent cells counted with trypan blue; assay type: cell-based, human
Method: (§1) FIG. 7. Two ×10^5 cells/plate were plated on a 6-well plate, 24 hrs after plating cells were starved in 0.5% FCS containing media for another 24 hrs. Cells were then treated for another 24 hrs with increasing doses of IBTP or the non-reactive analog butyl-triphenylphosphonium (BTPP) as a control. Cells were scraped and made into single cell suspension. Cells were counted and plated in 100-mm tissue culture plate. After 24 hrs the media is collected, centrifuged and the viable cells were counted using trypan blue.
FIG. 2. Two×10^5 cells/plate were plated on a 6-well plate, 24 hrs after plating cells were starved in 0.5% FCS containing media for another 24 hrs.
as §1, with “Cells” for “FIG. 7. Two ×10^5 cells/plate were plated on a 6-well plate, 24 hrs after plating cells were starved in 0.5% FCS containing media for another 24 hrs. Cells”

[5] = test system: aconitase (ACO), isocitrate dehydrogenase (IDH), and α-ketoglutarate dehydrogenase (KGDH); conditions: cited from earlier work
[6] = test system: MDA-MB 231 breast cancer cells; assay: Cell death and clonogenic survival; assay type: cell-based
[7] = test system: cancer or noncancer cells; assay: Cytotoxicity of the MTE alone; assay type: cell-based; conditions: data not shown
[8] = test system: MCF10A nontumorigenic cells; assay: Sensitization to doxorubicin in nontumorigenic cells; assay type: cell-based; conditions: data not shown
[9] = cited from earlier work
[10] = i.p. injection; cited from earlier work

## CCCCC/C=C/C=C1/C(=O)C=C[C@@H]1C/C=C\CCCC(=O)O [15d-PGJ2, 15 deoxy-prostaglandin J2]
[1]
  migration of breast cancer cells: inhibits migration

## ICCCC[P+](c1ccccc1)(c1ccccc1)c1ccccc1 [IBTP, iodobutyl triphenylphosphonium iodide]
[2]
  basal OCR: decrease basal OCR
  reserve capacity (RC): completely abrogates the reserve capacity
[3]; MDA-MB-231, 10 μM, 4 h, normoxia or hypoxia 8 h
  constitutive and hypoxia-inducible expression of HIF-1α protein: inhibits both constitutive and hypoxia-inducible expression of HIF-1α protein
[3]; MDA-MB-231, data not shown
  basal HIF-1α stabilization: inhibited basal HIF-1α stabilization both time and dose-dependently
[4]; 10 μM, 24 h
  reattachment to tissue culture plates after scraping: failed to reattach
[4]; Homo sapiens, MDA-MB-231, read-out: cells whose adhesion is inhibited after detachment
  inhibition at 10 µM: ~15%
[5]
  covalent adducts with Krebs cycle proteins: forms covalent adducts
[6]; 10 μM, 24 h
  overt cell death: no evidence of overt cell death
[6]; 10 μM, data not shown
  clonogenic survival: significantly decreased clonogenic survival
[6]; concentrations higher than 10 μM, MDA-MB 231 and other cell types
  cytotoxicity at higher concentrations: can be cytotoxic
[7]
  cytotoxicity: not cytotoxic
[8]
  sensitization to doxorubicin: did not sensitize

## COC1=C(OC)C(=O)C(CCCCCCCCCC[P+](c2ccccc2)(c2ccccc2)c2ccccc2)=C(C)C1=O [mitoQ]
[9]; clinical trials
  oral bioavailability: orally bioavailable
  tolerability: well tolerated
[9]; phase I clinical trials
  efficacy in Parkinson's Disease: not found to be effective
[10]
  dose up to which no toxicity was observed: up to 750 nmol mitoQ/mouse
